Laboratory results published in the supplement of paper PMC10733146.

Legend:
Experiment in all cases: viability relative to DMSO control (fraction); higher = less drug effect (more viable cells)
Details in all cases: 48 h
[1] = test system: primary AML patient cells (S089)
In short: (§1)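 Primary mononuclear tumour cells (Ficoll-isolated from blood or bone marrow, or processed lymph node; fresh or cryopreserved) were plated at 4 × 10^4 cells per well in 384-well plates with pre-plated compounds at five concentrations, one well each. Medium was RPMI-1640 with penicillin/streptomycin, L-glutamine and human serum, at 37 °C and 5% CO2 for 48 h. Viability was read as CellTiter-Glo luminescence relative to the median of 16 inner DMSO wells.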

[2] = test system: primary AML patient cells (S037)
In short: as §1

[3] = test system: primary CLL patient cells (S043)
In short: as §1

[4] = test system: primary T-PLL patient cells (S008)
In short: as §1

[5] = test system: primary AML patient cells (S091)
In short: as §1

[6] = test system: primary AML patient cells (S071)
In short: as §1

[7] = test system: primary DLBCL patient cells (S082)
In short: as §1

[8] = test system: primary AML patient cells (S055)
In short: as §1

[9] = test system: primary MCL patient cells (S053)
In short: as §1

[10] = test system: primary AML patient cells (S081)
In short: as §1

[11] = test system: primary AML patient cells (S021)
In short: as §1

[12] = test system: primary AML patient cells (S009)
In short: as §1

[13] = test system: primary B-PLL patient cells (S016)
In short: as §1

[14] = test system: primary BL patient cells (S005)
In short: as §1

[15] = test system: primary AML patient cells (S002)
In short: as §1

[16] = test system: primary AML patient cells (S060)
In short: as §1

[17] = test system: primary AML patient cells (S025)
In short: as §1

[18] = test system: primary AML patient cells (S072)
In short: as §1

[19] = test system: primary AML patient cells (S017)
In short: as §1

[20] = test system: primary MCL patient cells (S068)
In short: as §1

Nc1nc(F)nc2c1ncn2[C@@H]1O[C@H](CO)[C@@H](O)[C@@H]1O [Fludarabine]
viability ([1]; 0.016 µM): 0.949 | viability ([1]; 0.08 µM): 1.18 | viability ([1]; 0.4 µM): 0.878 | viability ([1]; 2 µM): 0.597 | viability ([1]; 10 µM): 0.401 | viability ([2]; 0.016 µM): 1.25 | viability ([2]; 0.08 µM): 0.999 | viability ([2]; 0.4 µM): 1.18 | viability ([2]; 2 µM): 0.643 | viability ([2]; 10 µM): 0.455 | viability ([3]; 0.016 µM): 1.02 | viability ([3]; 0.08 µM): 0.982 | viability ([3]; 0.4 µM): 0.882 | viability ([3]; 2 µM): 0.614 | viability ([3]; 10 µM): 0.236 | viability ([4]; 0.016 µM): 0.988 | viability ([4]; 0.08 µM): 1.02 | viability ([4]; 0.4 µM): 0.942 | viability ([4]; 2 µM): 0.761 | viability ([4]; 10 µM): 0.373 | viability ([5]; 0.016 µM): 0.958 | viability ([5]; 0.08 µM): 1 | viability ([5]; 0.4 µM): 0.737 | viability ([5]; 2 µM): 0.405 | viability ([5]; 10 µM): 0.361 | viability ([6]; 0.016 µM): 0.997 | viability ([6]; 0.08 µM): 0.973 | viability ([6]; 0.4 µM): 0.491 | viability ([6]; 2 µM): 0.195 | viability ([6]; 10 µM): 0.135 | viability ([7]; 0.016 µM): 1.03 | viability ([7]; 0.08 µM): 0.94 | viability ([7]; 0.4 µM): 0.908 | viability ([7]; 2 µM): 0.588 | viability ([7]; 10 µM): 0.429 | viability ([8]; 0.016 µM): 1.05 | viability ([8]; 0.08 µM): 0.976 | viability ([8]; 0.4 µM): 0.937 | viability ([8]; 2 µM): 0.624 | viability ([8]; 10 µM): 0.256 | viability ([9]; 0.016 µM): 1.02 | viability ([9]; 0.08 µM): 0.928 | viability ([9]; 0.4 µM): 0.638 | viability ([9]; 2 µM): 0.238 | viability ([9]; 10 µM): 0.156 | viability ([10]; 0.016 µM): 1.1 | viability ([10]; 0.08 µM): 1.05 | viability ([10]; 0.4 µM): 1.1 | viability ([10]; 2 µM): 1.02 | viability ([10]; 10 µM): 0.89 | viability ([11]; 0.016 µM): 1.04 | viability ([11]; 0.08 µM): 0.882 | viability ([11]; 0.4 µM): 0.579 | viability ([11]; 2 µM): 0.277 | viability ([11]; 10 µM): 0.183 | viability ([12]; 0.016 µM): 0.952 | viability ([12]; 0.08 µM): 0.86 | viability ([12]; 0.4 µM): 0.59 | viability ([12]; 2 µM): 0.402 | viability ([12]; 10 µM): 0.359 | viability ([13]; 0.016 µM): 1.08 | viability ([13]; 0.08 µM): 1.01 | viability ([13]; 0.4 µM): 0.929 | viability ([13]; 2 µM): 0.535 | viability ([13]; 10 µM): 0.0968 | viability ([14]; 0.016 µM): 0.972 | viability ([14]; 0.08 µM): 1.18 | viability ([14]; 0.4 µM): 0.943 | viability ([14]; 2 µM): 0.905 | viability ([14]; 10 µM): 1.05 | viability ([15]; 0.016 µM): 1.27 | viability ([15]; 0.08 µM): 1.07 | viability ([15]; 0.4 µM): 0.9 | viability ([15]; 2 µM): 0.457 | viability ([15]; 10 µM): 0.313 | viability ([16]; 0.016 µM): 1.02 | viability ([16]; 0.08 µM): 1.01 | viability ([16]; 0.4 µM): 1.06 | viability ([16]; 2 µM): 1.03 | viability ([16]; 10 µM): 0.89 | viability ([17]; 0.016 µM): 1.09 | viability ([17]; 0.08 µM): 0.901 | viability ([17]; 0.4 µM): 0.506 | viability ([17]; 2 µM): 0.275 | viability ([17]; 10 µM): 0.169 | viability ([18]; 0.016 µM): 1.02 | viability ([18]; 0.08 µM): 1.08 | viability ([18]; 0.4 µM): 0.824 | viability ([18]; 2 µM): 0.724 | viability ([18]; 10 µM): 0.529 | viability ([19]; 0.016 µM): 1.05 | viability ([19]; 0.08 µM): 1.03 | viability ([19]; 0.4 µM): 1.07 | viability ([19]; 2 µM): 0.854 | viability ([19]; 10 µM): 0.534 | viability ([20]; 0.016 µM): 1.01 | viability ([20]; 0.08 µM): 0.961 | viability ([20]; 0.4 µM): 0.804 | viability ([20]; 2 µM): 0.463 | viability ([20]; 10 µM): 0.194
